According to patent US12564638B2 (SHANGHAITECH UNIVERSITY, priority 2019, dated 2026):
Read-outs that look alike come from different tables or passages of the source.

Key:
[1] = test system: PC9 cells (EGFR Exon 19 del, non-small cell lung cancer cells); experiment: Cell viability assay (WST/CCK8), PC9 cells; assay type: cell-based; details: Homo sapiens, PC-9, PC9 (Exon19 Del), 72 hours, read-out: IC50 (half inhibitory concentration)
How it was run: (§1)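 Plated 3 000 cells/well in complete RPMI1640 the day before dosing; controls were DMSO (negative) and EGFR TKIs (positive).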

[2] = test system: HCC827 cells (EGFR Exon19 del, non-small cell lung cancer cells); experiment: Cell viability assay (WST/CCK8), HCC827 cells; assay type: cell-based; details: Homo sapiens, HCC827, 72 h, HCC827 (Exon19 Del), 72 hours, read-out: IC50 (half inhibitory concentration)
How it was run: as §1

[3] = Table 6, canertinib-based compounds, WST

| IC50 ([1]; WST (CCK8)) [nM] | IC50 ([2]; WST (CCK8)) [nM] | IC50 [1, 3] [nM] | IC50 [2, 3] [nM] | Structure (SMILES) |
| --- | --- | --- | --- | --- |
| 112 | 4.5 |  |  | COc1cc2ncnc(Nc3ccc(F)c(Cl)c3)c2cc1NC(=O)/C=C/CN1CCN(C(=O)CCNc2cccc3c2C(=O)N(C2CCC(=O)NC2=O)C3=O)CC1 (stereo not shown) [SIAIS262016, (E)-N-(4-((3-chloro-4-fluorophenyl)amino)-7-methoxyquinazolin-6-yl)-4-(4-(3-((2-(2,6-dioxopiperidin-3-yl)-1,3-dioxoisoindolin-4-yl)amino)propanoyl)piperazin-1-yl)but-2-enamide] |
| 9.9 | 0.8 |  |  | COc1cc2ncnc(Nc3ccc(F)c(Cl)c3)c2cc1NC(=O)/C=C/CN1CCC(N2CCN(CCCC#Cc3cccc4c3CN(C3CCC(=O)NC3=O)C4=O)CC2)CC1 (stereo not shown) [SIAIS262050, (E)-N-(4-((3-chloro-4-fluorophenyl)amino)-7-methoxyquinazolin-6-yl)-4-(4-(4-(5-(2-(2,6-dioxopiperidin-3-yl)-1-oxoisoindolin-4-yl)pent-4-yn-1-yl)piperazin-1-yl)piperidin-1-yl)but-2-enamide] |
| 2.5 | 2.5 |  |  | COc1cc2ncnc(Nc3ccc(F)c(Cl)c3)c2cc1NC(=O)/C=C/CN1CCC(N2CCN(CCCCC#Cc3cccc4c3CN(C3CCC(=O)NC3=O)C4=O)CC2)CC1 (stereo not shown) [SIAIS262051, (E)-N-(4-((3-chloro-4-fluorophenyl)amino)-7-methoxyquinazolin-6-yl)-4-(4-(4-(6-(2-(2,6-dioxopiperidin-3-yl)-1-oxoisoindolin-4-yl)hex-5-yn-1-yl)piperazin-1-yl)piperidin-1-yl)but-2-enamide] |
| 1.3 | 1.4 |  |  | COc1cc2ncnc(Nc3ccc(F)c(Cl)c3)c2cc1NC(=O)/C=C/CN1CCC(N2CCN(C(=O)CCc3cccc4c3CN(C3CCC(=O)NC3=O)C4=O)CC2)CC1 (stereo not shown) [SIAIS262052, (E)-N-(4-((3-chloro-4-fluorophenyl)amino)-7-methoxyquinazolin-6-yl)-4-(4-(4-(3-(2-(2,6-dioxopiperidin-3-yl)-1-oxoisoindolin-4-yl)propanoyl)piperazin-1-yl)piperidin-1-yl)but-2-enamide] |
| 185 | 3.1 |  |  | COc1cc2ncnc(Nc3ccc(F)c(Cl)c3)c2cc1NC(=O)/C=C/CN1CCC(N2CCN(CCCCCCSc3cccc4c3CN(C3CCC(=O)NC3=O)C4=O)CC2)CC1 (stereo not shown) [SIAIS262065, (E)-N-(4-((3-chloro-4-fluorophenyl)amino)-7-methoxyquinazolin-6-yl)-4-(4-(4-(6-((2-(2,6-dioxopiperidin-3-yl)-1-oxoisoindolin-4-yl)thio)hexyl)piperazin-1-yl)piperidin-1-yl)but-2-enamide] |
| 73 | 20 |  |  | COc1cc2ncnc(Nc3ccc(F)c(Cl)c3)c2cc1NC(=O)/C=C/CN1CCC(NC(=O)CSc2cccc3c2CN(C2CCC(=O)NC2=O)C3=O)CC1 (stereo not shown) [SIAIS262110, (E)-N-(4-((3-chloro-4-fluorophenyl)amino)-7-methoxyquinazolin-6-yl)-4-(4-(2-((2-(2,6-dioxopiperidin-3-yl)-1-oxoisoindolin-4-yl)thio)acetamido)piperidin-1-yl)but-2-enamide] |
| 42.5 | 14 |  |  | COc1cc2ncnc(Nc3ccc(F)c(Cl)c3)c2cc1NC(=O)/C=C/CN1CCC(NC(=O)CCCSc2cccc3c2CN(C2CCC(=O)NC2=O)C3=O)CC1 (stereo not shown) [SIAIS262112, (E)-N-(4-((3-chloro-4-fluorophenyl)amino)-7-methoxyquinazolin-6-yl)-4-(4-(4-((2-(2,6-dioxopiperidin-3-yl)-1-oxoisoindolin-4-yl)thio)butanamido)piperidin-1-yl)but-2-enamide] |
|  |  | 179 | 47.2 | C=CC(=O)Nc1cc2c(Nc3ccc(F)c(Cl)c3)ncnc2cc1OCCCN1CCN(C(=O)CCOCCOCCOCCOCCC(=O)N[C@H](C(=O)N2C[C@H](O)C[C@H]2C(=O)NCc2ccc(-c3scnc3C)cc2)C(C)(C)C)CC1 [SIAIS262130, (2S,4R)-1-((S)-19-(4-(3-((6-acrylamido-4-((3-chloro-4-fluorophenyl)amino)quinazolin-7-yl)oxy)propyl)piperazin-1-yl)-2-(tert-butyl)-4,19-dioxo-7,10,13,16-tetraoxa-3-azanonadecanoyl)-4-hydroxy-N-(4-(4-methylthiazol-5-yl)benzyl)pyrrolidine-2-carboxamide] |
| 74 | 1.3 |  |  | COc1cc2ncnc(Nc3ccc(F)c(Cl)c3)c2cc1NC(=O)/C=C/CN1CCC(N2CCN(Cc3ccc(CSc4cccc5c4CN(C4CCC(=O)NC4=O)C5=O)cc3)CC2)CC1 (stereo not shown) [SIAIS337021, (E)-N-(4-((3-chloro-4-fluorophenyl)amino)-7-methoxyquinazolin-6-yl)-4-(4-(4-(4-(((2-(2,6-dioxopiperidin-3-yl)-1-oxoisoindolin-4-yl)thio)methyl)benzyl)piperazin-1-yl)piperidin-1-yl)but-2-enamide] |
| 36 | 5.6 |  |  | COc1cc2ncnc(Nc3ccc(F)c(Cl)c3)c2cc1NC(=O)/C=C/CN1CCC(N2CCN(C(=O)COc3cccc4c3CN(C3CCC(=O)NC3=O)C4=O)CC2)CC1 (stereo not shown) [SIAIS337025, (E)-N-(4-((3-chloro-4-fluorophenyl)amino)-7-methoxyquinazolin-6-yl)-4-(4-(4-(2-((2-(2,6-dioxopiperidin-3-yl)-1-oxoisoindolin-4-yl)oxy)acetyl)piperazin-1-yl)piperidin-1-yl)but-2-enamide] |
| 8.6 | 0.5 |  |  | COc1cc2ncnc(Nc3ccc(F)c(Cl)c3)c2cc1NC(=O)/C=C/CN1CCC(N2CCN(C(=O)CCCCOc3cccc4c3CN(C3CCC(=O)NC3=O)C4=O)CC2)CC1 (stereo not shown) [SIAIS337026, (E)-N-(4-((3-chloro-4-fluorophenyl)amino)-7-methoxyquinazolin-6-yl)-4-(4-(4-(5-((2-(2,6-dioxopiperidin-3-yl)-1-oxoisoindolin-4-yl)oxy)pentanoyl)piperazin-1-yl)piperidin-1-yl)but-2-enamide] |
| 13.2 | 1.1 |  |  | COc1cc2ncnc(Nc3ccc(F)c(Cl)c3)c2cc1NC(=O)/C=C/CN1CCC(N2CCN(C(=O)CCCCCOc3cccc4c3CN(C3CCC(=O)NC3=O)C4=O)CC2)CC1 (stereo not shown) [SIAIS337027, (E)-N-(4-((3-chloro-4-fluorophenyl)amino)-7-methoxyquinazolin-6-yl)-4-(4-(4-(6-((2-(2,6-dioxopiperidin-3-yl)-1-oxoisoindolin-4-yl)oxy)hexanoyl)piperazin-1-yl)piperidin-1-yl)but-2-enamide] |
| 20.3 | 0.9 |  |  | COc1cc2ncnc(Nc3ccc(F)c(Cl)c3)c2cc1NC(=O)/C=C/CN1CCC(N2CCN(C(=O)CCCCCCOc3cccc4c3CN(C3CCC(=O)NC3=O)C4=O)CC2)CC1 (stereo not shown) [SIAIS337028, (E)-N-(4-((3-chloro-4-fluorophenyl)amino)-7-methoxyquinazolin-6-yl)-4-(4-(4-(7-((2-(2,6-dioxopiperidin-3-yl)-1-oxoisoindolin-4-yl)oxy)heptanoyl)piperazin-1-yl)piperidin-1-yl)but-2-enamide] |
| 28.4 | 0.3 |  |  | COc1cc2ncnc(Nc3ccc(F)c(Cl)c3)c2cc1NC(=O)/C=C/CN1CCC(N2CCN(CCCCCCOc3cccc4c3CN(C3CCC(=O)NC3=O)C4=O)CC2)CC1 (stereo not shown) [SIAIS337029, (E)-N-(4-((3-chloro-4-fluorophenyl)amino)-7-methoxyquinazolin-6-yl)-4-(4-(4-(6-((2-(2,6-dioxopiperidin-3-yl)-1-oxoisoindolin-4-yl)oxy)hexyl)piperazin-1-yl)piperidin-1-yl)but-2-enamide] |
